Some test systems named below: A549 NSCLC; CAKI-1 renal; DU-145 prostate; HCT-15 colon; HOP-92 NSCLC; IGROV1 ovarian; K-562 leukemia; M14 melanoma; MDA-MB-231 breast; NCI-H23 lung; OVCAR-3 ovarian; OVCAR-4 ovarian; OVCAR-5 ovarian; OVCAR-8 ovarian; SF-268 CNS; SF-295 CNS; SF-539 CNS; SK-MEL-2 melanoma; SK-OV-3 ovarian.
What all share (assay): NCI-60 cell line screen, 48 h

Molecules are shown by their SMILES.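 These data come from cells grown in 96-well plates and exposed to compound for 48 hours at five concentrations. TGI is the concentration that stops growth completely.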 Bounds are passed on as bounds.

With `N#CC1=C(N2CCCC2)NC(=O)CC1=O`, the TGI with A549 NSCLC, in the assay with CAKI-1 renal, with DU-145 prostate, in the assay with HCT-15 colon, in the assay with HOP-92 NSCLC and with IGROV1 ovarian was above 100 µM each time. Further, the TGI with K-562 leukemia, with M14 melanoma, in the assay with MDA-MB-231 breast, in the assay with NCI-H23 lung, in the assay on OVCAR-3 ovarian and with OVCAR-4 ovarian was above 100 µM in each case. Also, the TGI in the assay with OVCAR-5 ovarian, in the assay on OVCAR-8 ovarian, in the assay with SF-268 CNS, with SF-295 CNS, in the assay on SF-539 CNS and in the assay on SK-MEL-2 melanoma was above 100 µM throughout. In addition, in the assay on SK-OV-3 ovarian, the TGI is above 100 µM.
For the molecule `Cc1ccc2nc3ccccc3c(C3C4C(=O)N(c5ccc(Br)cc5Cl)C(=O)C4ON3C(C(N)=O)c3ccccc3)c2c1` (stereo not given), the TGI in the assay with A549 NSCLC is above 25 µM; in the assay on CAKI-1 renal, 10.5 µM; in the assay on DU-145 prostate, above 25 µM; in the assay on HCT-15 colon it was 19.5 µM; in the assay with HOP-92 NSCLC, above 25 µM; with IGROV1 ovarian it was above 25 µM. Besides, the TGI in the assay on K-562 leukemia is above 25 µM; in the assay with M14 melanoma, above 25 µM; with MDA-MB-231 breast it was above 25 µM; in the assay on NCI-H23 lung it was 6.86 µM; in the assay with OVCAR-3 ovarian, above 25 µM; with OVCAR-4 ovarian, above 25 µM. In addition, the TGI with OVCAR-5 ovarian, with OVCAR-8 ovarian, with SF-268 CNS, with SF-295 CNS, in the assay on SF-539 CNS and in the assay on SK-MEL-2 melanoma was above 25 µM throughout. The molecule also showed a TGI with SK-OV-3 ovarian above 25 µM.
For `CCC1c2[nH]c3ccccc3c2C[C@H]2C(=O)NC(CCC(=O)OC(C)(C)C)C(=O)N12` (stereo not given in full), the TGI with A549 NSCLC was above 100 µM; in the assay with CAKI-1 renal it was above 100 µM; in the assay with DU-145 prostate, above 100 µM; in the assay on HCT-15 colon it was above 100 µM; with HOP-92 NSCLC it was 94.9 µM; with IGROV1 ovarian, above 100 µM. Further, the TGI with K-562 leukemia, with M14 melanoma, with MDA-MB-231 breast, in the assay on NCI-H23 lung, in the assay on OVCAR-3 ovarian and with OVCAR-4 ovarian was above 100 µM in each case. The TGI in the assay with OVCAR-5 ovarian, in the assay on OVCAR-8 ovarian, with SF-268 CNS, in the assay with SF-295 CNS, in the assay on SK-MEL-2 melanoma and in the assay on SK-OV-3 ovarian was above 100 µM throughout.
As to `Cn1c(=O)c2c(nc(NCCCCl)n2CC(=O)NCCCCl)n(C)c1=O`, the TGI with A549 NSCLC, in the assay on CAKI-1 renal, with DU-145 prostate, in the assay with HCT-15 colon, with HOP-92 NSCLC and with IGROV1 ovarian was above 100 µM in each case. Besides, the TGI in the assay with K-562 leukemia, in the assay with M14 melanoma, with MDA-MB-231 breast, in the assay with NCI-H23 lung, in the assay with OVCAR-3 ovarian and in the assay on OVCAR-4 ovarian was above 100 µM each time. The TGI in the assay on OVCAR-5 ovarian, in the assay on OVCAR-8 ovarian, with SF-268 CNS, with SF-295 CNS, in the assay with SK-MEL-2 melanoma and with SK-OV-3 ovarian was above 100 µM each time.
On to `CCSc1nc(N2CCOCC2)c2cn[nH]c2n1`, for which the TGI in the assay with A549 NSCLC, with CAKI-1 renal, in the assay on DU-145 prostate, in the assay with HCT-15 colon, in the assay on HOP-92 NSCLC and in the assay on IGROV1 ovarian was above 100 µM in each case. The TGI in the assay on K-562 leukemia, with M14 melanoma, in the assay with MDA-MB-231 breast, in the assay on NCI-H23 lung, with OVCAR-3 ovarian and in the assay on OVCAR-4 ovarian was above 100 µM in each case. Besides, the TGI in the assay on OVCAR-5 ovarian, in the assay with OVCAR-8 ovarian, in the assay on SF-268 CNS, with SF-295 CNS, in the assay with SF-539 CNS and with SK-MEL-2 melanoma was above 100 µM throughout. Besides, the TGI in the assay with SK-OV-3 ovarian was above 100 µM.
As for `CC(=O)O[C@@H]1C=C(C)[C@H](CBr)O[C@@]2(C)CC[C@H](Br)C(C)(C)[C@H]12`, the TGI in the assay with A549 NSCLC, in the assay with CAKI-1 renal, with DU-145 prostate, in the assay on HCT-15 colon, with HOP-92 NSCLC and with IGROV1 ovarian was above 100 µM throughout. Also, the TGI in the assay with K-562 leukemia, with M14 melanoma, in the assay with MDA-MB-231 breast, with NCI-H23 lung, in the assay on OVCAR-4 ovarian and with OVCAR-5 ovarian was above 100 µM throughout. Further, the TGI in the assay on OVCAR-8 ovarian, with SF-268 CNS, in the assay on SF-295 CNS, in the assay with SF-539 CNS, in the assay on SK-MEL-2 melanoma and in the assay with SK-OV-3 ovarian was above 100 µM in each case.
Consider `c1ccc2c(c1)nc1n2CNCC1`, for which the TGI in the assay on A549 NSCLC, in the assay on CAKI-1 renal, in the assay with DU-145 prostate, with HCT-15 colon, with HOP-92 NSCLC and in the assay with IGROV1 ovarian was above 100 µM each time. The TGI with M14 melanoma, in the assay with MDA-MB-231 breast, with NCI-H23 lung, with OVCAR-3 ovarian, with OVCAR-4 ovarian and with OVCAR-5 ovarian was above 100 µM throughout. Also, the TGI in the assay on OVCAR-8 ovarian, in the assay with SF-268 CNS, in the assay on SF-295 CNS, with SF-539 CNS, in the assay with SK-MEL-2 melanoma and in the assay with SK-OV-3 ovarian was above 100 µM each time.
As to `Nc1nc(Cl)cc(NCC2(CO)CC(OCc3ccccc3)C2)n1` (stereo not given), the TGI with A549 NSCLC, in the assay with CAKI-1 renal, with DU-145 prostate, in the assay with HCT-15 colon, in the assay on HOP-92 NSCLC and in the assay with IGROV1 ovarian was above 100 µM in each case. Also, the TGI with K-562 leukemia, in the assay with MDA-MB-231 breast, with NCI-H23 lung, with OVCAR-3 ovarian, with OVCAR-4 ovarian and in the assay with OVCAR-5 ovarian was above 100 µM throughout. Moreover, the TGI in the assay on OVCAR-8 ovarian is above 100 µM; in the assay with SF-268 CNS it was 74.8 µM; in the assay with SF-295 CNS it was above 100 µM; in the assay with SF-539 CNS it was above 100 µM; in the assay on SK-MEL-2 melanoma it was above 100 µM; in the assay on SK-OV-3 ovarian it was above 100 µM.
Regarding `Cc1oc2nc(N(C)C)nc(Cl)c2c1C`, the TGI with A549 NSCLC, with CAKI-1 renal, in the assay on DU-145 prostate, with HCT-15 colon, in the assay on HOP-92 NSCLC and with IGROV1 ovarian was above 100 µM throughout. The TGI in the assay with K-562 leukemia, with M14 melanoma, with MDA-MB-231 breast, in the assay on NCI-H23 lung, with OVCAR-3 ovarian and with OVCAR-4 ovarian was above 100 µM each time. Further, the TGI in the assay with OVCAR-5 ovarian, in the assay with OVCAR-8 ovarian, in the assay with SF-268 CNS, in the assay on SF-295 CNS, in the assay with SF-539 CNS and with SK-MEL-2 melanoma was above 100 µM in each case.
Consider `O=C(Nc1ccc2nc(-c3ccccc3)cn2c1)Oc1ccccc1`, for which the TGI in the assay with A549 NSCLC, in the assay on CAKI-1 renal, in the assay on DU-145 prostate, with HCT-15 colon, with HOP-92 NSCLC and in the assay with IGROV1 ovarian was above 100 µM each time. Besides, the TGI in the assay with K-562 leukemia, in the assay on M14 melanoma, in the assay with MDA-MB-231 breast, in the assay with NCI-H23 lung, in the assay with OVCAR-3 ovarian and in the assay on OVCAR-4 ovarian was above 100 µM each time. For the same molecule, the TGI with OVCAR-5 ovarian, with OVCAR-8 ovarian, with SF-268 CNS, in the assay with SF-295 CNS, with SK-MEL-2 melanoma and in the assay on SK-OV-3 ovarian was above 100 µM in each case.
`O=P(c1ccccc1)(c1ccccc1)C(NCc1ccccc1)c1ccc(F)cc1` (stereo not given): the TGI with A549 NSCLC stood at 30.2 µM; with CAKI-1 renal, 38 µM; with DU-145 prostate, 45.2 µM; with HCT-15 colon, 28.7 µM; in the assay on HOP-92 NSCLC, 26.6 µM; in the assay with IGROV1 ovarian it was 33.4 µM. The TGI with K-562 leukemia was determined as 65.4 µM; with M14 melanoma, 27.8 µM; in the assay with MDA-MB-231 breast, 26.1 µM; in the assay with NCI-H23 lung, 31.3 µM; with OVCAR-3 ovarian it was 27.6 µM; in the assay with OVCAR-4 ovarian, 92.6 µM. In addition, the TGI with OVCAR-8 ovarian came out at 40.6 µM; in the assay with SF-268 CNS, 37.4 µM; in the assay on SF-295 CNS, 29.4 µM; in the assay on SF-539 CNS it was 36.2 µM; in the assay on SK-MEL-2 melanoma it was 29 µM; in the assay on SK-OV-3 ovarian, 34.1 µM.
Consider `S=C(/N=c1/sc(Nc2ccccc2)nc2sc3c(c12)CCCC3)Nc1ccccc1`, for which the TGI in the assay on CAKI-1 renal, in the assay on DU-145 prostate, in the assay on HCT-15 colon, in the assay on HOP-92 NSCLC, in the assay on IGROV1 ovarian and with K-562 leukemia was above 62.5 µM each time. Besides, the TGI with MDA-MB-231 breast, in the assay on NCI-H23 lung, in the assay with OVCAR-3 ovarian, in the assay with OVCAR-4 ovarian, with OVCAR-5 ovarian and in the assay with SF-268 CNS was above 62.5 µM throughout. For the same molecule, the TGI in the assay on SK-MEL-2 melanoma and with SK-OV-3 ovarian was above 62.5 µM throughout.

These data come from PubChem BioAssay (NCI).
